Laboratory results taken from PubChem BioAssay (NCI).
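Grown in 96-well plates, cells were treated for 48 hours with each compound at five concentrations. Insufficient inhibition: endpoint recorded as highest concentration tested. TGI: total growth inhibition.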

Legend:
Experiment in all cases: NCI anticancer screen, dose series, 48 h
[1] = test system: NCI-H460 lung
[2] = test system: OVCAR-4 ovarian
[3] = test system: NCI-H226 lung
[4] = test system: A498 renal
[5] = test system: SK-MEL-2 melanoma
[6] = test system: IGROV1 ovarian
[7] = test system: TK-10 renal
[8] = test system: SR leukemia
[9] = test system: A549 NSCLC
[10] = test system: KM12 colon
[11] = test system: RPMI-8226 leukemia
[12] = test system: UACC-257 melanoma
[13] = test system: M14 melanoma
[14] = test system: HCT-116 colon
[15] = test system: HCT-15 colon
[16] = test system: ACHN renal
[17] = test system: SK-MEL-28 melanoma
[18] = test system: MALME-3M melanoma
[19] = test system: HL-60(TB) leukemia
[20] = test system: BT-549 breast
[21] = test system: SF-539 CNS
[22] = test system: COLO 205 colon
[23] = test system: HCC-2998 colon
[24] = test system: 786-0 renal
[25] = test system: SNB-19 CNS
[26] = test system: MDA-N
[27] = test system: HS 578T breast
[28] = test system: MDA-MB-435
[29] = test system: RXF 393 renal
[30] = test system: SW-620 colon
[31] = test system: MDA-MB-231 breast
[32] = test system: HT29 colon
[33] = test system: K-562 leukemia
[34] = test system: LOX IMVI melanoma
[35] = test system: OVCAR-5 ovarian
[36] = test system: SN12C renal
[37] = test system: U251 CNS
[38] = test system: HOP-92 NSCLC
[39] = test system: MCF7 breast
[40] = test system: NCI/ADR-RES ovarian
[41] = test system: PC-3 prostate
[42] = test system: HOP-62 NSCLC
[43] = test system: SNB-75 CNS
[44] = test system: CCRF-CEM leukemia
[45] = test system: OVCAR-3 ovarian
[46] = test system: UACC-62 melanoma
[47] = test system: SK-OV-3 ovarian
[48] = test system: NCI-H23 lung
[49] = test system: SF-268 CNS
[50] = test system: T-47D breast
[51] = test system: DU-145 prostate
[52] = test system: SK-MEL-5 melanoma
[53] = test system: UO-31 renal
[54] = test system: SF-295 CNS
[55] = test system: OVCAR-8 ovarian
[56] = test system: MOLT-4 leukemia
[57] = test system: NCI-H522 lung
[58] = test system: EKVX NSCLC

Measured: TGI

Clc1ccc(-c2cn3c(nc4ccccc43)c(/C=C/c3cccs3)n2)cc1
not listed: [54] | [55] | [56] | [57] | [58]
> 100 µM: all other assays above

O=C(Nn1c(-c2ccccc2)nc2ccccc2c1=O)c1ccc([N+](=O)[O-])cc1
not listed: [5] | [14]
> 100 µM: all other assays above
